This passage reports IC50 results from patent US11274090B2, “P300/CBP HAT inhibitors” (Constellation Pharmaceuticals, Inc., priority 2018, dated 2022).

Each structure is given as a SMILES string. pIC50: −log10 of the molar value.

The target in this test is p300 HAT domain (residues 1287-1666) (Homo sapiens (Human), UniProt Q09472). Description: p300 HAT SPA assay (scintillation proximity assay, acetylation of biotinylated H3(1-21) peptide). The conditions noted are these: average of at least 2 replicate titrations. It counts as biochemical. The method in brief: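 Purified p300 HAT domain reaction transferred to streptavidin plates to capture biotinylated H3(1-21) peptide, incubated 1.5 hr at RT, and read by scintillation proximity. IC50 values derived from concentration-response data.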
p300 HAT domain (residues 1287-1666), sequence (Q09472 1287-1666): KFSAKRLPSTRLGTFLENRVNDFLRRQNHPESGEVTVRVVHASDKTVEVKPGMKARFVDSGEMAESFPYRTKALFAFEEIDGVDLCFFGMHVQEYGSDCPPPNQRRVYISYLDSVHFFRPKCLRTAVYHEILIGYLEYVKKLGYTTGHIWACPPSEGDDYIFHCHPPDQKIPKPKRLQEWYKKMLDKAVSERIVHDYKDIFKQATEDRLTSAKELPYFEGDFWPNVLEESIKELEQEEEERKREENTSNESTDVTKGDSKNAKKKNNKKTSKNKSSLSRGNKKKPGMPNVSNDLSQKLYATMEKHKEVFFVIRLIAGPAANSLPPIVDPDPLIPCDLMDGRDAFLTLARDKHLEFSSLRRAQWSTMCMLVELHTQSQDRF
As to `CCCCCCc1cccc(C(NCCc2ccc(C#N)cc2)C(=O)Nc2ccc(-c3cnn(C)c3)cn2)c1` (single isomer, unassigned) [118 Isomer 1], the negative logarithm of the IC50 (pIC50) was less than 5.70.
For `CCCCCCc1cccc(C(NCCc2ccc(C#N)cc2)C(=O)Nc2ccc(-c3cnn(C)c3)cn2)c1` (single isomer, unassigned) [118 Isomer 2], the negative logarithm of the IC50 (pIC50) was 5.72.
`Cn1cc(-c2ccc(NC(=O)C(NCCc3ccc(C#N)cc3)c3ccc(C#N)cc3)nc2)cn1` (single isomer, unassigned) [119 Isomer 1] had a negative-log IC50 (pIC50) of 6.43.
`Cn1cc(-c2ccc(NC(=O)C(NCCc3ccc(C#N)cc3)c3ccc(C#N)cc3)nc2)cn1` (single isomer, unassigned) [119 Isomer 2] had a pIC50 of 5.80.
The same measure for `Cn1cc(-c2ccc(NC(=O)C(NCCc3ccc(C#N)cc3)c3ccc(C(F)(F)F)cc3)nc2)cn1` (single isomer, unassigned) [120 Isomer 1]: less than 5.70.
Turning to `Cn1cc(-c2ccc(NC(=O)C(NCCc3ccc(C#N)cc3)c3ccc(C(F)(F)F)cc3)nc2)cn1` (single isomer, unassigned) [120 Isomer 2], the pIC50 was less than 5.70.
The same measure for `CCCCCCc1ccc(C(NCCc2ccc(C#N)cc2)C(=O)Nc2ccc(-c3cnn(C)c3)cn2)cc1` (single isomer, unassigned) [121 racemic]: less than 5.70; for `Cn1cc(-c2ccnc(NC(=O)C(NCCc3ccc(C#N)cc3)c3ccccc3)c2)cn1` (single isomer, unassigned) [122 Isomer 1]: less than 4.22; for `Cn1cc(-c2ccnc(NC(=O)C(NCCc3ccc(C#N)cc3)c3ccccc3)c2)cn1` (single isomer, unassigned) [122 Isomer 2]: 4.31.
The same measure for `CC1CN(c2ccc(NC(=O)C(NC[C@@H](C)c3ccc(C#N)cc3)c3ccccc3)nc2)CC(=O)N1C` (single isomer, unassigned) [124 Isomer 2]: 6.11; for `CC1CN(C)C(=O)CN1c1ccc(NC(=O)C(NC[C@@H](C)c2ccc(C#N)cc2)c2ccccc2)nc1` (single isomer, unassigned) [125 Isomer 1]: 5.78; for `CC1CN(C)C(=O)CN1c1ccc(NC(=O)C(NC[C@@H](C)c2ccc(C#N)cc2)c2ccccc2)nc1` (single isomer, unassigned) [125 Isomer 2]: less than 5.70.
The molecule `CC1CN(C)C(=O)CN1c1ccc(NC(=O)C(NC[C@@H](C)c2ccc(C#N)cc2)c2ccccc2)nc1` (single isomer, unassigned) [125 Isomer 3] had a pIC50 of 7.76.
`CC1CN(C)C(=O)CN1c1ccc(NC(=O)C(NC[C@@H](C)c2ccc(C#N)cc2)c2ccccc2)nc1` (single isomer, unassigned) [125 Isomer 4] had a pIC50 of 7.71.
The molecule `CC1C(=O)N(C)CCN1c1ccc(NC(=O)C(NC[C@@H](C)c2ccc(C#N)cc2)c2ccccc2)nc1` (single isomer, unassigned) [126 Isomer 1] gave a pIC50 of 7.68.
Molecule `CC1C(=O)N(C)CCN1c1ccc(NC(=O)C(NC[C@@H](C)c2ccc(C#N)cc2)c2ccccc2)nc1` (single isomer, unassigned) [126 Isomer 2] gave a pIC50 of less than 5.70.
Molecule `CC1C(=O)N(C)CCN1c1ccc(NC(=O)C(NC[C@@H](C)c2ccc(C#N)cc2)c2ccccc2)nc1` (single isomer, unassigned) [126 Isomer 3] showed a pIC50 of less than 5.70.
For `CC1C(=O)N(C)CCN1c1ccc(NC(=O)C(NC[C@@H](C)c2ccc(C#N)cc2)c2ccccc2)nc1` (single isomer, unassigned) [126 Isomer 4], the pIC50 was 7.66.
`CC(CNC(C(=O)Nc1ccc(-c2cnn(C)c2)cn1)c1cnn(C)c1)c1ccc(C#N)cc1` (single isomer, unassigned) [127 Isomer 1] had a negative-log IC50 (pIC50) of less than 5.70.
With `CC(CNC(C(=O)Nc1ccc(-c2cnn(C)c2)cn1)c1cnn(C)c1)c1ccc(C#N)cc1` (single isomer, unassigned) [127 Isomer 2], the negative logarithm of the IC50 (pIC50) was less than 5.70.
The same measure for `CC(CNC(C(=O)Nc1ccc(-c2cnn(C)c2)cn1)c1cnn(C)c1)c1ccc(C#N)cc1` (single isomer, unassigned) [127 Isomer 3]: less than 5.70; for `CC(CNC(C(=O)Nc1ccc(-c2cnn(C(F)F)c2)cn1)c1cnn(C)c1)c1ccc(C#N)cc1` (single isomer, unassigned) [128 Isomer 1]: 6.24.
`CC(CNC(C(=O)Nc1ccc(-c2cnn(C(F)F)c2)cn1)c1cnn(C)c1)c1ccc(C#N)cc1` (single isomer, unassigned) [128 Isomer 2]: the pIC50 was less than 5.70.
In the case of `CC(CNC(C(=O)Nc1ccc(-c2cnn(C(F)F)c2)cn1)c1cnn(C)c1)c1ccc(C#N)cc1` (single isomer, unassigned) [128 Isomer 3] it was less than 5.70; in that of `C[C@H](CNC(C(=O)Nc1ccc(-c2cnn(C)c2)cn1)c1cncc(F)c1)c1ccc(C#N)cc1` (single isomer, unassigned) [129 Isomer 1], 7.12.
`C[C@H](CNC(C(=O)Nc1ccc(-c2cnn(C)c2)cn1)c1cncc(F)c1)c1ccc(C#N)cc1` (single isomer, unassigned) [129 Isomer 2] gave a negative-log IC50 (pIC50) of 7.69.
In turn, `Cc1nn(C)c(C)c1-c1ccc(NC(=O)C(NC[C@@H](C)c2ccc(C#N)cc2)c2ccccc2)nc1` (single isomer, unassigned) [130 Isomer 1] had a pIC50 greater than 5.70.
In the case of `Cc1noc(C)c1-c1ccc(NC(=O)C(NC[C@@H](C)c2ccc(C#N)cc2)c2ccccc2)nc1` (single isomer, unassigned) [131 Isomer 1] it was 6.44; in that of `Cc1noc(C)c1-c1ccc(NC(=O)C(NC[C@@H](C)c2ccc(C#N)cc2)c2ccccc2)nc1` (single isomer, unassigned) [131 Isomer 2], 7.42; in that of `C[C@H](CNC(C(=O)Nc1ccc(-c2cnn(CC(=O)N3CCCC3)c2)cn1)c1ccccc1)c1ccc(C#N)cc1` (single isomer, unassigned) [132 Isomer 1], 6.03.
Molecule `Cc1n[nH]c(C)c1-c1ccc(NC(=O)C(NC[C@@H](C)c2ccc(C#N)cc2)c2ccccc2)nc1` (single isomer, unassigned) [133 Isomer 1] showed a pIC50 of 5.91.
As to `C[C@H](CNC(C(=O)Nc1ccc(-c2ccc(=O)n(C)n2)cn1)c1ccccc1)c1ccc(C#N)cc1` (single isomer, unassigned) [134 Isomer 1], the negative-log IC50 (pIC50) is less than 5.70.
In turn, `CC(=O)N1CCN(c2ccc(NC(=O)C(NC[C@@H](C)c3ccc(C#N)cc3)c3cccc(F)c3)nc2)CC1` (single isomer, unassigned) [135 Isomer 1] showed a pIC50 of 6.07.
In the case of `CC(CNC(C(=O)Nc1ccc(N2CCN(C)C(=O)C2)cn1)c1cnn(C)c1)c1ccc(C#N)cc1` (single isomer, unassigned) [136 Isomer 1] it was less than 5.70.
The same measure for `CC(CNC(C(=O)Nc1ccc(N2CCN(C)C(=O)C2)cn1)c1cnn(C)c1)c1ccc(C#N)cc1` (single isomer, unassigned) [136 Isomer 2]: less than 5.70; for `CC(CNC(C(=O)Nc1ccc(N2CCN(C)C(=O)C2)cn1)c1cnn(C)c1)c1ccc(C#N)cc1` (single isomer, unassigned) [136 Isomer 4]: less than 5.70.
In the case of `C[C@H](CNC(C(=O)Nc1ccc(N2CCN(C)C(=O)C2)cn1)c1cccc(F)c1)c1ccc(C#N)cc1` (single isomer, unassigned) [137 Isomer 1], the pIC50 is 6.11.
